# A melting point compilation (Tetko et al.; mined from patent text by program, amines drawn as free bases though some values may be those of a salt)
row,Compound,melting point [°C]
1,CCCCN/C(=C1/Sc2ccccc2C1=O)c1ccccc1,106 to 107
2,NS(=O)(=O)c1cc2[nH]ccc2cc1F,181 to 182
3,NCc1ccc(C(=O)CCCN2CCC(c3ccc(Cl)cc3)CC2)cc1,94 to 96
4,COc1nc(OS(=O)(=O)C(F)(F)F)cc2cccnc12,99 to 101
5,Cn1c(N2CCOC(c3noc(-c4ccccc4)n3)C2)nc(-c2ccncn2)cc1=O (stereo not drawn),208
6,COc1ccccc1N1CCN(CCCNC(=O)c2csc3c(=O)cc(-c4ccccc4)oc23)CC1,161 to 162
7,CON=C(c1ncno1)c1ccccc1COc1ccc(Cl)cc1,96 to 97.5
8,COc1ccc2cc3c(cc2c1)C(=O)OC3=O,238 to 240
9,Cc1ccccc1C(CCC(=O)O)Oc1cc(OCc2cccnc2)ccc1C#N (stereo not drawn),130 to 134
10,CN(C)C(=NC(=Nc1ccccc1)N1CCOCC1)N(C)C,115 to 119
11,O=C(C=C1C(=O)N(c2ccccc2)C(=O)N1c1ccccc1)Nc1ccccc1,214
12,C[C@@H](COS(C)(=O)=O)NS(=O)(=O)c1ccccc1[N+](=O)[O-],125 to 126
13,NC(=O)N(O)Cc1ccoc1,125 to 128
14,O=C(O)COc1ccc2c(-c3ccccc3F)noc2c1I,178 to 180
15,CCCCSc1cc(C(=O)O)cc(S(N)(=O)=O)c1-c1ccccc1,75 to 77
16,CC(C)(c1ccc(O)cc1)c1ccc(OC#N)cc1,75
17,O=C1Nc2ccc(Cl)c(Cl)c2C1c1ccccc1F (stereo not drawn),244 to 247
18,Cc1c(O)ccc2c(=O)c(-c3ccccc3O)coc12,196 to 198
19,O=C(Cn1ncc2cc(/C=C/C(c3cc(Cl)c(F)c(Cl)c3)C(F)(F)F)ccc2c1=O)NCC(F)(F)F (stereo not drawn),172 to 175
20,O=C(CCl)Nc1ccccc1C1C=CCC1 (stereo not drawn),101 to 102
21,O=C(c1cccnc1)c1cc2cc(Br)ccc2o1,144 to 145
22,CC(=O)NC[C@@H]1C[C@H]1c1c(F)ccc2nn(C)cc12 (relative stereo),120
23,Cc1cc(C(C)(O)c2ccc(C(F)(F)F)cn2)ccc1NC(=O)OC(C)(C)C (stereo not drawn),132 to 134
24,O=C(O)Cc1ccc(NC(=O)C(COc2ccccc2)NS(=O)(=O)c2ccc(I)cc2)cc1 (racemic),224 to 225
25,CCOc1ccc2[nH]ccc2c1OCc1ccccc1,122 to 123

row,Compound,melting point [°C]
1,Cc1ccc(-c2[nH]c(C(C)(C)C)nc2C(=O)Nc2nccs2)cc1,218
2,CCC1(CCCCN2CCN(c3ccc(F)c(Cl)c3)CC2)C(=O)Nc2ccccc21 (stereo not drawn),121 to 124
3,O=C1CCN(Cc2ccc([N+](=O)[O-])cc2)C(=O)C1=C1SC=CS1,192 to 193
4,COc1ccc(C2Cc3ccccc3C2=O)cc1 (stereo not drawn),83 to 85
5,CN(C(=O)CN(C(=O)CNC(=O)Nc1cccc(O)c1)c1ccccc1)c1ccccc1,180
6,O=C1c2ccccc2C(=O)c2sc(-c3ccoc3)nc21,245
7,COc1ccc(C2=NN(c3ccc(OCC(N)=O)cc3)C(=O)C(C)(C)C2)cc1OC,184 to 187
8,COc1cc(-n2nnn(C)c2=O)c(Cl)cc1Cl,80 to 81
9,COc1cc(C2CCCCC2)ccc1C(=O)CCC(=O)O,130 to 131
10,C#Cc1ccc(C(O)(Cn2cncn2)C(C)(C)C)cc1 (stereo not drawn),101
11,CCCSc1ncc(C(=O)N[C@@H](Cc2c[nH]cn2)C(=O)O)n1Cc1ccccc1Cl,130 to 132
12,CCN(CC)C(=O)Nc1ccccc1,81 to 85
13,C=CCn1c(C)c(C)c2cnnc(CCc3ccc(F)cc3F)c21,118 to 119
14,COc1cc(CO)ncc1C,102 to 104
15,CCC(=O)NC(=O)C(CC)(OC(=O)CC)C(=O)NC(=O)CC,90
16,COC(=O)c1ccc(Cc2cn(C)c3ccc(C(=O)O)cc23)c(OC)c1,249 to 251
17,CCc1[nH]n(C2CCCC2)c2nc(-c3ccccc3C(F)(F)F)nc(=O)c1-2,201 to 202
18,CCn1nnnc1Cc1ccc(N)cc1,94 to 95
19,Cc1cc(C)c(C)c(COc2ccccc2-c2ccoc2C(=O)NNC(=O)c2ccc(O)c(C#N)c2)c1C,215 to 217
20,CN(C(F)(F)C(F)F)S(=O)(=O)c1ccccc1S(N)(=O)=O,102 to 107
21,CN(c1cccc2c(F)c(C3=NCC(CC(N)=O)S3)[nH]c12)S(=O)(=O)c1cccs1 (stereo not drawn),204 to 205
22,CC(=O)c1ccc(-n2c(-c3cc(-c4ccc(S(C)(=O)=O)cc4)c(N4CCOCC4)s3)nc3ccccc3c2=O)cc1,239 to 242
23,CCOC(=O)CCCCN(C(=O)c1ccc(Cl)cc1)c1cccc2ccccc12,74 to 75
24,COc1nc(N)nc2c1CCC2,134 to 135
25,CN(C(=O)OC(C)(C)C)[C@@H]1CCc2c(c3cc(S(=O)(=O)c4ccccc4)ccc3n2C)C1,181 to 183

row,Compound,melting point [°C]
1,NC(=O)C(=O)c1ccccc1CCl,105 to 107
2,NS(=O)(=O)Oc1ccc2ccccc2c1,114 to 115
3,CCCc1c(OCCCCCOc2ccc3c(c2CCC)OC(C(=O)OCC)CC3=O)ccc(C(C)=O)c1O (stereo not drawn),80 to 81
4,CN(c1cc(OCCCS(C)(=O)=O)cc2cc(C(=O)O)[nH]c12)S(=O)(=O)c1ccccn1,207 to 208
5,COC(=O)c1c(I)cccc1Nc1ccccc1C(=O)O,191 to 193
6,Cc1nnc(SCC(=O)C23CC4CC(CC(C4)C2)C3)s1,102 to 105
7,Cn1cnc(S(=O)(=O)Nc2cc(C(c3cc(F)ccc3F)S(=O)(=O)c3ccc(Cl)cc3)c(Cl)cn2)c1 (stereo not drawn),294 to 296
8,Cn1cc(C(=O)Nc2ccccc2-c2ccc(C(F)(F)F)cc2)c(C(F)F)n1,164 to 165
9,ON(Cn1nnc2ccccc21)Cn1nnc2ccccc21,173 to 174
10,O=c1ccsc2c1[nH]c1ccccc12,242 to 243
11,OCc1sccc1C=Cc1csc2ccccc12,114 to 115
12,CC1Nc2ccc(-c3coc(C#N)c3)cc2C(C)(C)O1 (stereo not drawn),116 to 118
13,Cc1cc(C(O)CN2CCC(O)(c3ccc4c(c3)COCC4)CC2)ccc1O (stereo not drawn),178
14,CC1(Cl)C(=O)N(c2ccc(Cl)c(Cl)c2)N=C1C#N (stereo not drawn),68 to 69
15,CCOC(=O)C(NC=O)=C(c1ccc(F)cc1)c1ccc(F)cc1,174 to 176
16,Clc1cccc2c1CNC2,48 to 50
17,COC(=O)C[C@H](O)C[C@H](O)CCc1c(-c2ccc(F)cc2)c(-c2ccccc2)c(C(=O)Nc2cccc(S(N)(=O)=O)c2)n1C(C)C,80 to 81
18,CCC[C@H]1CC[C@H](OC(=O)c2ccc(OCC)c(F)c2F)CC1,93
19,Clc1cc2cc[nH]c2cn1,192 to 194
20,CC(C)c1ncc2cc(Cl)nc(Cl)n12,90 to 93
21,Cc1c(CC(=O)OC(OC(=O)Cc2cc(C(C)(C)C)c(O)c(C)c2C)(OC(=O)Cc2cc(C(C)(C)C)c(O)c(C)c2C)C(C)(C)C)cc(C(C)(C)C)c(O)c1C,159
22,O=C(Oc1cc(OC(=O)c2ccc(O)c(O)c2)c2ccccc2c1)c1ccc(O)c(O)c1,79 to 81
23,Nc1ncccc1C(=O)NCC1CCN(C[C@H]2COc3cccc(C(F)(F)F)c3O2)CC1,101 to 103
